Positions of bridges follow the written chain, without caps; N, C: chain ends. Residues, ends and D or L forms follow the SMILES beside them.
Columns and labels:
[1] = target: T1, Glucagon-like peptide 1 receptor (Homo sapiens, UniProt P43220); assay: Activation of human GLP1R expressed in HEK293 cells assessed as effect on cAMP responsive element promoter driven luciferase expression; format: functional, cell-based
[2] = target: T1, Glucagon-like peptide 1 receptor; assay: Displacement of [125I]exendin(9-39) from human GLP1R expressed in HEK293 cells; format: cell-based

T1 sequence (P43220 whole entry): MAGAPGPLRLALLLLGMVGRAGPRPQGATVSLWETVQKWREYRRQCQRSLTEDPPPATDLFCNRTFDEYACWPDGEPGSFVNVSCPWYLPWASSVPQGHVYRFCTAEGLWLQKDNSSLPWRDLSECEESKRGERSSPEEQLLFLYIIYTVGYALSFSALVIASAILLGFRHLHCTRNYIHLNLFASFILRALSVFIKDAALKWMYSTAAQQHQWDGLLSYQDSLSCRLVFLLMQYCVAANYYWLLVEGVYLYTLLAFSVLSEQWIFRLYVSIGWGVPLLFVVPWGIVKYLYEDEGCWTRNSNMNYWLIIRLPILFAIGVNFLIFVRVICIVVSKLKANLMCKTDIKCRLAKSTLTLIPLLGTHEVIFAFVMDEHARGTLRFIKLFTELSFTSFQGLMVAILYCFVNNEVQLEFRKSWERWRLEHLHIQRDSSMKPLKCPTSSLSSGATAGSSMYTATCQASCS

| SMILES | EC50 [1] [nM] | IC50 [2] [nM] | EC50 ([1]; hek293) [nM] | IC50 ([2]; hek293) [nM] |
| --- | --- | --- | --- | --- |
| CC[C@H](C)[C@H](NC(=O)[C@H](CCC(=O)O)NC(=O)[C@H](CCCCN)NC(=O)[C@H](C)NC(=O)[C@H](C)NC(=O)[C@H](CCC(N)=O)NC(=O)CNC(=O)[C@H](CCC(=O)O)NC(=O)[C@H](CCC(N)=O)NC(=O)[C@H](Cc1ccc(O)cc1)NC(=O)[C@H](CO)NC(=O)[C@H](CO)NC(=O)[C@H](CCCCNC(C)=O)NC(=O)[C@H](CC(=O)O)NC(=O)[C@H](CO)NC(=O)[C@@H](NC(=O)[C@H](Cc1ccccc1)NC(=O)[C@@H](NC(=O)CNC(=O)[C@H](CCC(=O)O)NC(=O)[C@H](C)NC(=O)[C@@H](N)Cc1cnc[nH]1)[C@@H](C)O)[C@@H](C)O)C(=O)N[C@@H](Cc1ccccc1)C(=O)N[C@@H](C)C(=O)N[C@@H](Cc1c[nH]c2ccccc12)C(=O)N[C@@H](CC(C)C)C(=O)N[C@H](C(=O)N[C@@H](CCCCN)C(=O)NCC(=O)N[C@@H](CCCN=C(N)N)C(N)=O)C(C)C | 0.012 | 6.6 |  |  |
| CC[C@H](C)[C@H](NC(=O)[C@H](CCC(=O)O)NC(=O)[C@H](CCCCN)NC(=O)[C@H](C)NC(=O)[C@H](C)NC(=O)[C@H](CCC(N)=O)NC(=O)CNC(=O)[C@H](CCC(=O)O)NC(=O)[C@H](CC(C)C)NC(=O)[C@H](Cc1ccc(O)cc1)NC(=O)[C@H](CO)NC(=O)[C@H](CO)NC(=O)[C@@H](NC(=O)[C@H](CCC(N)=O)NC(=O)[C@H](CO)NC(=O)[C@@H](NC(=O)[C@H](Cc1ccccc1)NC(=O)[C@H](CCCCNC(C)=O)NC(=O)CNC(=O)[C@H](CCC(=O)O)NC(=O)[C@H](C)NC(=O)[C@@H](N)Cc1cnc[nH]1)[C@@H](C)O)C(C)C)C(=O)N[C@@H](Cc1ccccc1)C(=O)N[C@@H](C)C(=O)N[C@@H](Cc1c[nH]c2ccccc12)C(=O)N[C@@H](CC(C)C)C(=O)N[C@H](C(=O)N[C@@H](CCCCN)C(=O)NCC(=O)N[C@@H](CCCN=C(N)N)C(N)=O)C(C)C (H-HAEGK(Ac)FTSQVSSYLEGQAAKEIFAWLVKGR-NH2) | 24 | 440 |  |  |
| CC[C@H](C)[C@H](NC(=O)[C@H](Cc1ccccc1)NC(=O)[C@H](CCC(=O)O)NC(=O)[C@H](CCCCN)NC(=O)[C@H](C)NC(=O)[C@H](C)NC(=O)[C@H](CCC(N)=O)NC(=O)CNC(=O)[C@H](CCC(=O)O)NC(=O)[C@H](CC(C)C)NC(=O)[C@H](Cc1ccc(O)cc1)NC(=O)[C@H](CO)NC(=O)[C@H](CO)NC(=O)[C@@H](NC(=O)[C@@H]1CCC(=O)NCCCC[C@H](NC(=O)CNC(=O)[C@H](CCC(=O)O)NC(=O)[C@H](C)NC(=O)[C@@H](N)Cc2cnc[nH]2)C(=O)N[C@@H](Cc2ccccc2)C(=O)N[C@@H]([C@@H](C)O)C(=O)N[C@@H](CO)C(=O)N1)C(C)C)C(=O)N[C@@H](C)C(=O)N[C@@H](Cc1c[nH]c2ccccc12)C(=O)N[C@@H](CC(C)C)C(=O)N[C@H](C(=O)N[C@@H](CCCCN)C(=O)NCC(=O)N[C@@H](CCCNC(=N)N)C(N)=O)C(C)C (H-HAEGKFTSEVSSYLEGQAAKEFIAWLVKGR-NH2; lactam 5-9) |  |  | 0.38 | 110 |
| CC[C@H](C)[C@H](NC(=O)[C@H](CCC(=O)O)NC(=O)[C@H](CCCCN)NC(=O)[C@H](C)NC(=O)[C@H](C)NC(=O)[C@H](CCC(N)=O)NC(=O)CNC(=O)[C@H](CCC(=O)O)NC(=O)[C@H](CC(C)C)NC(=O)[C@H](Cc1ccc(O)cc1)NC(=O)[C@H](CCC(N)=O)NC(=O)[C@H](CO)NC(=O)[C@@H](NC(=O)[C@H](CC(=O)O)NC(=O)[C@H](CCCCNC(C)=O)NC(=O)[C@@H](NC(=O)[C@H](Cc1ccccc1)NC(=O)[C@@H](NC(=O)CNC(=O)[C@H](CCC(=O)O)NC(=O)[C@H](C)NC(=O)[C@@H](N)Cc1cnc[nH]1)[C@@H](C)O)[C@@H](C)O)C(C)C)C(=O)N[C@@H](Cc1ccccc1)C(=O)N[C@@H](C)C(=O)N[C@@H](Cc1c[nH]c2ccccc12)C(=O)N[C@@H](CC(C)C)C(=O)N[C@H](C(=O)N[C@@H](CCCCN)C(=O)NCC(=O)N[C@@H](CCCN=C(N)N)C(N)=O)C(C)C (H-HAEGTFTK(Ac)DVSQYLEGQAAKEIFAWLVKGR-NH2) | 16 | 230 |  |  |
| CC[C@H](C)[C@H](NC(=O)[C@H](Cc1ccccc1)NC(=O)[C@H](CCC(=O)O)NC(=O)[C@H](CCCCN)NC(=O)[C@H](C)NC(=O)[C@H](C)NC(=O)[C@H](CCC(N)=O)NC(=O)CNC(=O)[C@H](CCC(=O)O)NC(=O)[C@H](CC(C)C)NC(=O)[C@H](Cc1ccc(O)cc1)NC(=O)[C@@H]1CCC(=O)NCCCC[C@H](NC(=O)[C@@H](NC(=O)[C@H](Cc2ccccc2)NC(=O)[C@@H](NC(=O)CNC(=O)[C@H](CCC(=O)O)NC(=O)[C@H](C)NC(=O)[C@@H](N)Cc2cnc[nH]2)[C@@H](C)O)[C@@H](C)O)C(=O)N[C@@H](CC(=O)O)C(=O)N[C@@H](C(C)C)C(=O)N[C@@H](CO)C(=O)N1)C(=O)N[C@@H](C)C(=O)N[C@@H](Cc1c[nH]c2ccccc12)C(=O)N[C@@H](CC(C)C)C(=O)N[C@H](C(=O)N[C@@H](CCCCN)C(=O)NCC(=O)N[C@@H](CCCNC(=N)N)C(N)=O)C(C)C (H-HAEGTFTKDVSEYLEGQAAKEFIAWLVKGR-NH2; lactam 8-12) |  |  | 8.4 | 210 |
| CC[C@H](C)[C@H](NC(=O)[C@H](Cc1ccccc1)NC(=O)[C@H](CCC(=O)O)NC(=O)[C@H](CCCCN)NC(=O)[C@H](C)NC(=O)[C@H](C)NC(=O)[C@H](CCC(N)=O)NC(=O)CNC(=O)[C@H](CCC(=O)O)NC(=O)[C@@H]1CSSC[C@H](NC(=O)[C@H](CC(=O)O)NC(=O)[C@H](CO)NC(=O)[C@@H](NC(=O)[C@H](Cc2ccccc2)NC(=O)[C@@H](NC(=O)CNC(=O)[C@H](CCC(=O)O)NC(=O)[C@H](C)NC(=O)[C@@H](N)Cc2cnc[nH]2)[C@@H](C)O)[C@@H](C)O)C(=O)N[C@@H](CO)C(=O)N[C@@H](CO)C(=O)N[C@@H](Cc2ccc(O)cc2)C(=O)N1)C(=O)N[C@@H](C)C(=O)N[C@@H](Cc1c[nH]c2ccccc12)C(=O)N[C@@H](CC(C)C)C(=O)N[C@H](C(=O)N[C@@H](CCCCN)C(=O)NCC(=O)N[C@@H](CCCNC(=N)N)C(N)=O)C(C)C (H-HAEGTFTSDCSSYCEGQAAKEFIAWLVKGR-NH2; disulfide 10-14) |  |  | 19 |  |
| CC[C@H](C)[C@H](NC(=O)[C@H](CCC(=O)O)NC(=O)[C@H](CCCCN)NC(=O)[C@H](C)NC(=O)[C@H](C)NC(=O)[C@H](CCC(N)=O)NC(=O)CNC(=O)[C@H](CCC(=O)O)NC(=O)[C@H](CS)NC(=O)[C@H](Cc1ccc(O)cc1)NC(=O)[C@H](CO)NC(=O)[C@H](CO)NC(=O)[C@H](CS)NC(=O)[C@H](CC(=O)O)NC(=O)[C@H](CO)NC(=O)[C@@H](NC(=O)[C@H](Cc1ccccc1)NC(=O)[C@@H](NC(=O)CNC(=O)[C@H](CCC(=O)O)NC(=O)[C@H](C)NC(=O)[C@@H](N)Cc1cnc[nH]1)[C@@H](C)O)[C@@H](C)O)C(=O)N[C@@H](Cc1ccccc1)C(=O)N[C@@H](C)C(=O)N[C@@H](Cc1c[nH]c2ccccc12)C(=O)N[C@@H](CC(C)C)C(=O)N[C@H](C(=O)N[C@@H](CCCCN)C(=O)NCC(=O)N[C@@H](CCCNC(=N)N)C(N)=O)C(C)C (H-HAEGTFTSDCSSYCEGQAAKEIFAWLVKGR-NH2) | 1.4 |  |  |  |
| CC[C@H](C)[C@H](NC(=O)[C@H](Cc1ccccc1)NC(=O)[C@H](CCC(=O)O)NC(=O)[C@H](CCCCN)NC(=O)[C@H](C)NC(=O)[C@H](C)NC(=O)[C@H](CCC(N)=O)NC(=O)CNC(=O)[C@H](CCC(=O)O)NC(=O)[C@@H]1CCC(=O)NCCCC[C@H](NC(=O)[C@H](CC(=O)O)NC(=O)[C@H](CO)NC(=O)[C@@H](NC(=O)[C@H](Cc2ccccc2)NC(=O)[C@@H](NC(=O)CNC(=O)[C@H](CCC(=O)O)NC(=O)[C@H](C)NC(=O)[C@@H](N)Cc2cnc[nH]2)[C@@H](C)O)[C@@H](C)O)C(=O)N[C@@H](CO)C(=O)N[C@@H](CO)C(=O)N[C@@H](Cc2ccc(O)cc2)C(=O)N1)C(=O)N[C@@H](C)C(=O)N[C@@H](Cc1c[nH]c2ccccc12)C(=O)N[C@@H](CC(C)C)C(=O)N[C@H](C(=O)N[C@@H](CCCCN)C(=O)NCC(=O)N[C@@H](CCCNC(=N)N)C(N)=O)C(C)C (H-HAEGTFTSDKSSYEEGQAAKEFIAWLVKGR-NH2; lactam 10-14) | 0.0075 | 4.5 |  |  |
| CC[C@H](C)[C@H](NC(=O)[C@H](Cc1ccccc1)NC(=O)[C@H](CCC(=O)O)NC(=O)[C@H](CCCCN)NC(=O)[C@H](C)NC(=O)[C@H](C)NC(=O)[C@H](CCC(N)=O)NC(=O)CNC(=O)[C@H](CCC(=O)O)NC(=O)[C@@H]1CCC(=O)NCCCC[C@H](NC(=O)[C@H](CC(=O)O)NC(=O)[C@H](CO)NC(=O)[C@@H](NC(=O)[C@H](Cc2ccccc2)NC(=O)[C@@H](NC(=O)CNC(=O)[C@H](CCC(=O)O)NC(=O)[C@H](C)NC(=O)[C@@H](N)Cc2cnc[nH]2)[C@@H](C)O)[C@@H](C)O)C(=O)N[C@@H](CO)C(=O)N[C@@H](CO)C(=O)N[C@@H](Cc2ccc(O)cc2)C(=O)N1)C(=O)N[C@H]1CCCCNC(=O)CC[C@@H](C(=O)NCC(=O)N[C@@H](CCCNC(=N)N)C(N)=O)NC(=O)[C@H](C(C)C)NC(=O)[C@H](CC(C)C)NC(=O)[C@H](Cc2c[nH]c3ccccc23)NC1=O (H-HAEGTFTSDKSSYEEGQAAKEFIKWLVEGR-NH2; lactam 10-14, 24-28) | 0.0033 |  |  |  |
| CC[C@H](C)[C@H](NC(=O)[C@H](CCC(=O)O)NC(=O)[C@H](CCCCN)NC(=O)[C@H](C)NC(=O)[C@H](C)NC(=O)[C@H](CCC(N)=O)NC(=O)CNC(=O)[C@H](CCC(=O)O)NC(=O)[C@H](CC(C)C)NC(=O)[C@H](Cc1ccc(O)cc1)NC(=O)[C@H](CO)NC(=O)[C@H](CO)NC(=O)[C@@H](NC(=O)[C@H](CC(=O)O)NC(=O)[C@H](CO)NC(=O)[C@@H](NC(=O)[C@H](Cc1ccccc1)NC(=O)[C@@H](NC(=O)CNC(=O)[C@H](CCC(=O)O)NC(=O)[C@H](C)NC(=O)[C@@H](N)Cc1cnc[nH]1)[C@@H](C)O)[C@@H](C)O)C(C)C)C(=O)N[C@@H](Cc1ccccc1)C(=O)N[C@@H](CCCCNC(C)=O)C(=O)N[C@@H](Cc1c[nH]c2ccccc12)C(=O)N[C@@H](CC(C)C)C(=O)N[C@H](C(=O)N[C@@H](CCC(N)=O)C(=O)NCC(=O)N[C@@H](CCCN=C(N)N)C(N)=O)C(C)C (H-HAEGTFTSDVSSYLEGQAAKEIFK(Ac)WLVQGR-NH2) |  |  | 0.0048 |  |
